Measurements as given in patent US9126993B2, “Glucosylceramide synthase inhibitors” (GENZYME CORPORATION, priority 2011, dated 2015).
Entries after “also recorded” stand apart in the source; their conditions may differ.

Key:
[1] = tested on: K14 mice; experiment: Brain GluCer and GluSph levels in K14 mouse model of type 2 Gaucher disease; type: in vivo
Experimental: Newborn mice received daily 5 mg/kg intraperitoneal injections of Quinuclidin-3-yl(2-(4′-fluoro-[1, l′-biphenyl]-3-yl)propan-2-yl)carbamate (hereinafter “GZ 161”) in a volume of 10 μl/gram of body weight starting at postnatal day 4. K14 mice and wild type littermates were humanely sacrificed at postnatal day 10 (pre-symptomatic) and at day 14 (humane endpoint) to evaluate glycosphingolipid (GSL) levels. Mice received a 150 mg/kg dose of pentobarbital (Euthasol, Virbac Inc, Fort Worth, Tex.) and were transcardially perfused with cold 0.9% NaCl solution. Brains were dissected and divided; one hemisphere was used for GSL analysis and the other was fixed in 4% paraformaldehyde for 96 hours and processed for histology.
(§1) Quantitative sphingolipid analysis was performed by liquid chromatography and tandem mass spectrometry (LC/MS/MS) as previously described in Merrill et al., Methods 36: 207-224 (2005). Briefly, 10 μl of brain tissue homogenate (tissue weight/water:100 mg/ml) was extracted with 1.00 ml of an organic solvent mixture (97% acetonitrile, 2% methanol, and 1% acetic acid, v/v) and vortexed vigorously for 10 min. Extracted sphingolipids (GluCer and GluSph) were directly separated by hydrophilic liquid chromatography (Atlantis HILIC column, Waters Corp.) and analyzed by triple quadrupole tandem mass spectrometry (API 4000, Applied Biosystems/MDS SCIEX) and compared with sphingolipid standards (Matreya, LLC; Pleasant Gap, Pa.)

[2] = tested on: K14 mice; experiment: Brain histopathology (CD68, F4/80, GFAP staining) in K14 mice; type: in vivo, mouse; conditions: daily IP from P4, staining at P10, vs vehicle
Experimental: After genotype confirmation, animals were humanely sacrificed at 10 days of age, At this age K14 mice are asymptomatic. Mice received an intraperitoneal injection of 150 mg/kg sodium pentobarbital ((Euthasol, Virbac Inc, Fort Worth, Tex.) and were perfused by an intracardial infusion of chilled 0.9% sodium chloride. Brains were removed and post fixed in 4% paraformaldehyde for 72 hours. Tissue was transferred to PBS and paraffin embedded. Sagital sections 5 μm thick were cut and stained as described below. Gliosis and the presence of cells of the macrophage lineage were evaluated by means of glial fibrillary acidic protein staining and expression of CD68 and F4/80 pan-macrophage markers using the Leica Bond Max Immunostainer system (Leica Microsystems, Wetzlar, Germany).
GFAP staining: Paraffin sections were placed on mounting slides and processed using the Bond Polymer Refine IHC system (Leica Microsystems, Wetlzar, Germany) blocked for 10 minutes in serum-free protein block (Dako systems, Glostrup, Denmark), incubated for 30 minutes in a 1:1500 dilution of primary anti-GFAP antibody in Dako antibody diluent (Dako, Glostrup, Denmark), and stained using the Bond Polymer Refine detection kit (Leica Microsystems, Wetzlar, Germany). […]
For each staining technique exposure-matched digital images were obtained from similar brain regions of each experimental group using the Aperio ScanScope XT system (Aperio Technologies, Vista, Calif.). Stained slides were digitalized in high resolution and six areas of interest were highlighted in each slide and analyzed independently by histomorphometry. Positively stained area and nuclei were determined and quantitative data were analyzed by a one-way analysis of variance followed by Tukey's multiple comparison test using the Graph Pad Prism V 4.0 (GraphPad Software, San Diego, Calif.). […]

[3] = tested on: WT mice; experiment: In utero exposure: brain GluCer in newborn WT mice; type: in vivo, mouse
Experimental: To determine if further benefits could be achieved by prenatal exposure to GZ 161, a subset of pregnant K14 females received GZ 161 in food using a formulation calculated to provide 20 mg/kg/day during the final 5-7 days of gestation. Females receiving GZ 161 were switched to standard diet after delivery and the pups received daily IP injections of GZ 161 at a dose of 5 mg/kg (10 μl per gram of body weight) starting at P 1. A set of WT pups born to females receiving the drug or standard formula was sacrificed immediately after birth to determine whether in utero exposure to GZ 161 could reduce brain GSL levels.
as §1
Values shown correspond to means and error bars represent standard error of the mean. Comparisons between groups were analyzed by a one-way analysis of variance followed by Tukey's multiple comparison test. Comparison of substrate reduction in utero was analyzed by the unpaired t test with Welch's correction. Kaplan-Meier survival curves were analyzed using the log-rank test equivalent to the Mantel-Haenszel test. All statistical analyses were performed using GraphPad Prism v4.0 (GraphPad Software, San Diego, Calif.). Differences between group means with p<0.05 were considered significant.

[4] = K14 mice, 5 mg/kg IP daily from P4, brains analyzed at P10
[5] = daily IP, compared to vehicle-treated K14 mice at the humane endpoint (14-15 days of age)

Structure (SMILES): CC(C)(NC(=O)OC1CN2CCC1CC2)c1cccc(-c2ccc(F)cc2)c1 (stereo not drawn) [GZ 161, Quinuclidin-3-yl(2-(4′-fluoro-[1,1′-biphenyl]-3-yl)propan-2-yl)carbamate]
- brain GluCer level reduction [1, 4]: ~70%
- brain GluSph level reduction [1, 4]: ~60%
- brain GluCer level reduction [1, 5]: > 60%
- brain GluSph level reduction [1, 5]: > 60%
- symptom status of treated K14 mice ([1]; daily IP, time point of brain analysis): asymptomatic
- crossing the blood brain barrier ([1]; inferred from reduction of brain glycosphingolipids after systemic (IP) administration): capable of crossing the blood brain barrier
- CD68+ cells in brain (hippocampus, thalamus, brainstem, cerebellum) [2]: reduces the numbers of CD68+ cells in all of these locations; also recorded: significant reductions the CD68+ cells in all brain regions
- F4/80+ cells in brain [2]: reduced the numbers of F4/80+ cells in the thalamus and brainstem, but had marginal effects in other brain regions; also recorded: significant reductions the F4/80+ cells in the thalamus and brainstem
- GFAP staining (gliosis) in brain [2]: decreased GFAP staining in the hippocampus and cerebellum; also recorded: significant reductions the GFAP+ cells in the hippocampus and cerebellum
- decrease in GluCer levels in the newborn mouse brain (P0) ([3]; WT dams treated, 20 mg/kg/day in food): ~5 fold
- crossing the blood/placental barrier ([3]; inferred from reduced GluCer in newborn brain after dosing pregnant WT mice): appears to cross the blood/placental barrier
- GluCer load in whole brain homogenates at birth (P0) ([3]; pregnant WT mice, 20 mg/kg/day in food): reduces the GluCer load
